The values that follow come from publication PMC9437721, “Identification and characterization of two Isatis indigotica O-methyltransferases methylating C-glycosylflavonoids” (Horticulture Research, 2022).

Where two headings read alike, the source gives them in different places.

The experiment relates to T1, IiOMT2.
T1 construct: N-terminal His6-SUMO tag kept (pE-SUMO), E. coli Rosetta (DE3), Ni-NTA
Briefly: O-methyltransferase assay, UPLC, Michaelis-Menten fit. It counts as biochemical, Isatis indigotica. Particulars: 480 μM SAM, Tris-HCl pH 9.0, 45 °C. The text has this: O-methyltransferase assay, UPLC, Michaelis-Menten fit on IiOMT2

As to `O=c1cc(-c2ccc(O)c(O)c2)oc2cc(O)c([C@@H]3O[C@H](CO)[C@@H](O)[C@H](O)[C@H]3O)c(O)c12` [compound 1, isoorientin], the Km (read-out: Isoorientin / IiOMT2) is 62.1 ± 16.1 µM. Consider `O=c1cc(-c2ccc(O)c(O)c2)oc2cc(O)cc(O)c12` [compound 2, luteolin], for which the Km (read-out: Luteolin / IiOMT2) came out at 77 ± 12.6 µM.
